Data: patent US20230365639A1, “DEFENSIN FRAGMENT DERIVED LIPOPEPTIDES FOR TREATMENT OF DRUG-RESISTANT MICROORGANISMS” (priority 2020, published 2023)
Converted amounts (≈) assume the structure as drawn. “Also recorded” adds a separate entry of the source. Starred links: 1 amine or outer side, 2 acyl side, 3 side chain; linkers in the order of their positions; H or OH if unused. Non-standard residues stand in square brackets, D forms with d. Residues, ends and D or L forms follow the SMILES beside them. No end group written: not given here. ξ: configuration not given here. *: point of attachment. K(Pam) = CCCCCCCCCCCCCCCC(=O)NCCCC[C@H](N[*:1])C(=O)[*:2]; X1 = CCCCCCCCCCCCCCCC(=O)OCC(C*)OC(=O)CCCCCCCCCCCCCCC; Palmitoyl = CCCCCCCCCCCCCCCC(=O)*; AEEA = NCCOCCOCC(=O)O; ξC = NC(CS)C(=O)O

What was measured:
[1] = Cellular toxicity, lactate dehydrogenase (LDH) assay; format: cell-based
Protocol: (§1) Methods: Cellular toxicity was determined by Lactate dehydrogenase concentration and WST-1 cell proliferation assay as well as hemolysis assay.

[2] = Cellular toxicity, WST-1 cell proliferation assay; format: cell-based
Protocol: as §1

red blood cell = test: Hemolysis assay; format: cell-based
Protocol: as §1

S. Typhimurium = test: Radial diffusion assay; format: cell-based
Protocol: (§2) Methods: Log-phase bacteria were cultivated for up to 18 hours in TSB (TSB, Becton Dickinson, USA), washed and diluted to 4×10^6 CFU in 10 ml agar. Bacteria were incubated in 10 ml of 10 mM sodium phosphate, pH 7.4, containing 0.3 mg/ml of TSB powder and 1% (w/v) low EEO-agarose (AppliChem). Lipopeptides were pipetted into punched wells and diffused into the gel for 3 hours at 37° C. After that, a nutrient-rich gel with 6% TSB (w/v) and 1% agarose in 10 mM sodium phosphate buffer was poured on top of the first gel and incubated for up to 24 hours at 37° C. Then the diameter of inhibition zones was measured.
(§3) Clinical isolates of A. baumannii DSM30007, E. faecium DSM2918, K. pneumoniae DSM30104 and P. aeruginosa DSM1117 were provided by the Department for Laboratory Medicine at Robert-Bosch-Hospital Stuttgart, Germany. C. rodentium DSM16636 and E. coli DSM8695 were obtained from the Deutsche Sammlung von Mikroorganismen and Zellkultur GmbH Braunschweig, Germany. […]

[3] = tested on: several pathogenic bacteria; test: Radial diffusion assay and MIC screening for antimicrobial activity; format: cell-based; details: radial diffusion assay and MIC determinations
Protocol: as §2, §3

[4] = tested on: bacteria from the ESKAPE panel; format: cell-based
Protocol: Methods: Broth microdilution assay. Log-phase bacteria were collected by centrifugation (2500 rpm, 10 min, 4° C.), washed twice with 10 mM sodium phosphate buffer containing 1% (w/v) TSB and the optical density at 600 nm was adjusted to 0.1. Approximately 5×10^5 CFU/ml bacteria were incubated with serial peptide concentrations (1.17-150 μM) in a final volume of 100 μl in 10 mM sodium phosphate buffer containing 1% (w/v) TSB for 2 hours at 37° C. After incubation, 100 μl of 6% TSB (w/v) was added and absorbance was measured at 600 nm (Tecan, Switzerland) and monitored for 18 hours. Afterwards, 100 μl per well was plated on LB agar to determine the number of viable bacteria microbiologically. Bactericidal activity was expressed as the LC99.9, the lowest concentration that killed ≥99.9% of bacteria.

C. albicans = test: Broth microdilution assay, antifungal activity; format: cell-based
Protocol: (§4) Methods: Broth microdilution assay. Candida was cultured in TSB over night at 37° C., centrifuged (1500 rpm, 10 min, RT) and washed twice with 10 mM sodium phosphate buffer containing 1% (w/v) TSB. Candida cells were counted and approximately 5×10^5 CFU/ml fungi were incubated with serial peptide concentrations (1.17-150 μM) in a final volume of 100 μl in 10 mM sodium phosphate buffer containing 1% (w/v) TSB for 2 hours at 37° C. After incubation, 100 μl of 6% TSB (w/v) was added and absorbance was measured at 600 nm (Tecan, Switzerland) and monitored for 18 hours. Afterwards, 100 μl per well was plated on YPD agar to determine the number of viable bacteria microbiologically.

C. tropicalis = test: Broth microdilution assay, antifungal activity; format: cell-based
Protocol: as §4

ypuA promoter = ypuA promoter luciferase reporter gene assay; format: cell-based, Bacillus subitilis 1S34
Protocol: A specific bacterial reporter strain with the genetic background of Bacillus subitilis 1S34, carrying the promoter of the ypuA gene, fused to the firefly luciferase reporter gene, was used to identify cell envelope-related damage caused by treatment with antimicrobial compounds. Bacteria were cultured to an OD600 of 0.9 in LB broth with 5 μg/ml erythromycin at 37° C. and diluted to an OD600 of 0.02. Serial peptide dilutions (0.15-150 μM) were prepared in a microtiter plate and incubated with the adjusted bacterial suspension at 37° C. for 1 hour. Subsequently, citrate buffer (0.1 M, pH 5) containing 2 mM luciferin (Iris Biotech, Germany) was added and luminescence was measured using a microplate reader (Tecan, Switzerland).

S. aureus NCTC8325 = test: Membrane potential assay with DiOC2(3); format: cell-based; details: 30 min treatment
Protocol: S. aureus NCTC8325 was grown to log-phase in LB+0.1% glucose, harvested and the optical density at 600 nm (OD600) was adjusted to 0.5. Bacteria were incubated with 30 μM 3,3′-diethyloxacarbocyanine iodide (DiOC2(3), Invitrogen™) for 15 min in the dark and treated with serial peptide concentrations for 30 min. The protonophore carbonyl cyanide m-chlorophenyl hydrazone (CCCP, Sigma Aldrich) was used as a positive control and DMSO or 0.01% acetic acid as negative control. Fluorescence was measured at an excitation wavelength of 485 nm and two emission wavelengths, 530 nm (green) and 630 (nm) red, using a microplate reader (Tecan, Switzerland).

[5] = Acute tolerability after oral administration; format: in vivo, C57BL/6N mice
Text: Methods: C57BL/6N mice were generated and maintained (including breeding and housing) at the animal facilities of the Helmholtz Centre for Infection Research (HZI) under enhanced specific pathogen-free (SPF) conditions (Stehr et al., 2009). Animals used in the experiments were gender and age matched. Female and male mice with an age of 8-12 weeks were used. Sterilized food and water ad libitum were provided. Mice were kept under a strict 12-hour light cycle (lights on at 7:00 am and off at […]) and housed in groups of two to six mice per cage. All mice were euthanized by asphyxiation with CO2 and cervical dislocation. All animal experiments were performed in agreement with the local government of Lower Saxony, Germany (approved permission No. 33.19-42502-04-18/2499).
Age- and gender-matched mice received two doses of peptides (0, 125 μg or 250 μg) solved in 100 μl PBS orally per day. Bodyweight and appearance were recorded. The following day, mice were sacrificed and stomach, kidney, spleen, liver, small intestine, cecum and colon were removed for histological scoring. Around 1 ml of blood was taken from the heart to measure inflammatory markers including creatinine in the kidney and the enzyme levels of glutamate-oxalacetate-transaminase (GOT) in the liver.

CCCCCCCCCCCCCCCC(=O)N[C@@H](CCCNC(=N)N)C(=O)NCC(=O)N[C@@H](CCCCN)C(=O)N[C@@H](C)C(=O)N[C@@H](CCCCN)C(=O)N[C@@H](CS)C(=O)N[C@@H](CS)C(=O)N[C@@H](CCCCN)C(=O)O [Pam-2] (Palmitoyl-RGKAKCCK-OH)
LDH activity (cytotoxicity) [1]: some LDH activity | metabolic activity (WST-1 assay) [2]: modest decrease | red blood cell disruption (hemolysis) (red blood cell): minimal red blood cell disruption

RGKAKCCK (Cleavage product of defensin) [octapeptide, the C-terminal eight amino acids of human beta-defensin 1, non-modified]
inhibition of S. Typhimurium growth (S. Typhimurium): failed to inhibit

Pam-Lys(Pam)-RGKAKCCK ({Palmitoyl-K(Pam)}-RGKAKCCK; cysteine pairing not given here) [Pam-5, octapeptide lipopeptide containing lysine as spacer]
antimicrobial activity, inhibition of bacterial growth of the tested strains [3]: generally inactive | bactericidal activity ([4]; broth microdilution, 1.17-150 μM peptide, 2 hours): moderate effects | antifungal activity against C. albicans (C. albicans): modest activity; also recorded: some efficacy | antifungal activity against C. tropicalis (C. tropicalis): good activity; also recorded: highly effective | cell envelope damage (ypuA reporter) (ypuA promoter): little cell envelope damage | breakdown of the membrane potential (S. aureus NCTC8325): most pronounced | LDH activity (cytotoxicity) [1]: no LDH activity | metabolic activity (WST-1 assay) [2]: normal metabolic activity | red blood cell disruption (hemolysis) (red blood cell): minimal red blood cell disruption

CCCCCCCCCCCCCCCC(=O)NC(CSCC(COC(=O)CCCCCCCCCCCCCCC)OC(=O)CCCCCCCCCCCCCCC)C(=O)N[C@@H](CCCNC(=N)N)C(=O)NCC(=O)N[C@@H](CCCCN)C(=O)N[C@@H](C)C(=O)N[C@@H](CCCCN)C(=O)N[C@@H](CS)C(=O)N[C@@H](CS)C(=O)N[C@@H](CCCCN)C(=O)O (stereo partly drawn) [Pam-4] (Palmitoyl-[ξC](X1)RGKAKCCK-OH)
LDH activity (cytotoxicity) [1]: no LDH activity | metabolic activity (WST-1 assay) [2]: normal metabolic activity | red blood cell disruption (hemolysis) (red blood cell): minimal red blood cell disruption

CCCCCCCCCCCCCCCC(=O)NCCOCCOCC(=O)N[C@@H](CCCNC(=N)N)C(=O)NCC(=O)N[C@@H](CCCCN)C(=O)N[C@@H](C)C(=O)N[C@@H](CCCCN)C(=O)N[C@@H](CS)C(=O)N[C@@H](CS)C(=O)N[C@@H](CCCCN)C(=O)O [Pam-3] ({Palmitoyl-AEEA}-RGKAKCCK-OH)
MIC [4]: 9.38 µM (≈ 12 µg/mL) | LDH activity (cytotoxicity) [1]: little LDH activity | metabolic activity (WST-1 assay) [2]: slight decrease | red blood cell disruption (hemolysis) (red blood cell): modest red blood cell disruption | histological examination of gastrointestinal, liver and kidney tissues ([5]; mouse, in vivo, po): no alterations | serum level of creatinine ([5]; mouse, in vivo, po): no significant differences between the groups | serum level of glutamic oxaloacetic transaminase (GOT) ([5]; mouse, in vivo, po): no significant differences between the groups | acute toxicity (histological analysis and serum markers) ([5]; oral, mice, 24 hours after application, 125 or 250 μg doses): did not reveal any acute toxicity; also recorded: No danger signals
